Measurements as given in patent US7052874B2, “Detection of antibacterial activity in excretory secretory product of adult Trichuris suis” (priority 2000, dated 2006).
Where a name gives a salt, the structure may show the parent alone. Read-outs that look alike come from different tables or passages of the source.

Key:
Campylobacter jejuni [1] = assay: Qualitative broth microdilution assay of ultrafiltration and HPLC fractions; format: cell-based; conditions: C18 reverse phase HPLC, 5–80% ACN gradient
Procedure: (§1) A broth microdilution method in 96 well plates was used to obtain qualitative and quantitative measures of antibacterial activity. Qualitatively, 50 μl samples of ESP were added to 50 μl suspensions of Campylobacter jejuni (containing about 5×10^5 cfu, as determined by standard serial dilution and plating) in 96 well plates. Plates were evaluated for growth as indicated by the presence of either turbidity or pellet of bacterial cells in the bottoms of U-shaped wells after 48 hr incubation.
Ultrafiltration. Ultrafiltration methods were used to nominally size fractionate ESP for an approximate determination of the molecular weight of the antibacterial agent(s). AMICON stirred cells under pressurized nitrogen gas were used to separate ESP into fractions above (retentate) and below (filtrate) 30,000 MW with a Millipore YM30 membrane (Millipore) and fractions above (retentate) and below (filtrate) 10,000 MW with a Millipore YM10 membrane. Prior to bioassay, the concentrated retentate fraction was returned to its original volume in RPMI-1640 media to match the volume of the filtrate so that comparisons of relative activity could be made without distortions due to volume differences. […]
High performance liquid chromatography. […] Absorbance of the eluate was monitored at 214 nm, and fractions were collected manually as peaks were detected. […]

Campylobacter jejuni [2] = assay: Heat stability of antibiotics (boiling, then qualitative broth microdilution assay); format: cell-based; conditions: for inactivation of antibiotic by heat treatment: boiling
Procedure: as §1, with “incubation. […] The size of the drug was also taken into consideration. Additionally, an experiment to assess the heat stability of the antibiotics was performed.” for “incubation.”

[3] = n-octanol/water partition coefficient (log PC) of antibiotics; format: physicochemical; conditions: in parentheses beside log PC
Procedure: Consideration of CAP contamination. […] Using the worst-case scenario, the predicted maximum amount of CAP absorbed and how much would be released into the medium if the whipworms dissolved (i.e., released 100%) was estimated. […] It was assumed that the aggregate whipworm volume of these eccentrically shaped nematodes occupied 4% of the incubation well volume (4 whipworms/ml at about 10 μl/whipworm).

[4] = compiled from a drug database at Upjohn; cited from earlier work

Antibacterial activity after boiling (Campylobacter jejuni [2]) | inactivation of antibiotic by heat treatment (Campylobacter jejuni [2]) | Structure (SMILES) | antibacterial activity of HPLC fractions (Campylobacter jejuni [1]) | Concentrating factor [3] | Antibacterial activity after boiling (Campylobacter jejuni [2]; antibiotics (133 concentration) boiled for 10 minutes) | log PC (n-octanol/water partition coefficient) [4]
+ | not heat-inactivated | O=C(N[C@H](CO)[C@H](O)c1ccc([N+](=O)[O-])cc1)C(Cl)Cl [Chloramphenicol, chloramphenicol] | one fraction with antibacterial activity |  |  | 
+ | boiling did not inactivate | [H]/N=C(/N)N[C@H]1[C@H](O)[C@@H](O)[C@H](O[C@@H]2O[C@@H](C)[C@](O)(C=O)[C@H]2O[C@@H]2O[C@@H](CO)[C@H](O)[C@@H](O)[C@@H]2NC)[C@@H](N/C(N)=N\[H])[C@@H]1O [Streptomycin sulfate] |  |  |  | −9.53

Structure (SMILES) | Antibacterial activity after boiling (Campylobacter jejuni [2]) | inactivation of antibiotic by heat treatment (Campylobacter jejuni [2]) | antibacterial activity of HPLC fractions (Campylobacter jejuni [1]) | Concentrating factor [3] | Antibacterial activity after boiling (Campylobacter jejuni [2]; antibiotics (133 concentration) boiled for 10 minutes) | log PC (n-octanol/water partition coefficient) [4]
CC1(C)S[C@@H]2[C@H](NC(=O)Cc3ccccc3)C(=O)N2[C@H]1C(=O)O [Penicillin G] |  | inactivated by heat treatment |  | (71×) | − | 
